The structures appear in SMILES notation.

What all share (assay type): biochemical
For experiment [1], the target named is T1, Human Caspase 3 (HCASP3) (Homo sapiens, UniProt P42574).
T1 sequence (P42574 29-175 limits assumed): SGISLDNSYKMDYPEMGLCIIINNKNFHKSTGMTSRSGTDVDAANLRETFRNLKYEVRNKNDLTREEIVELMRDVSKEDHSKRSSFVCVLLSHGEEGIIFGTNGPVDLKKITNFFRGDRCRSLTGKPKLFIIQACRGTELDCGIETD
T1 sequence (P42574 176-277 limits assumed): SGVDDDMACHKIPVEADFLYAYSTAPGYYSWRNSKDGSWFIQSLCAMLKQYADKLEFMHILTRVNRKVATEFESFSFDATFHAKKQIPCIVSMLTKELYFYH
Briefly: Human caspase-3 fluorogenic assay.

Experiment [2] deals with T2, C. elegans CED-3 (crude lysate, CED-3L) (Caenorhabditis elegans, UniProt P42573).
T2 sequence (P42573 221-374 limits assumed): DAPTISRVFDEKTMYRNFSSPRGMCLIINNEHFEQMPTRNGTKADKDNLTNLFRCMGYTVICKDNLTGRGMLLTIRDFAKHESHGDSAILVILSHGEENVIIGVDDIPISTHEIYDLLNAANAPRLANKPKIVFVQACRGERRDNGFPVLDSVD
T2 sequence (P42573 389-503 limits assumed): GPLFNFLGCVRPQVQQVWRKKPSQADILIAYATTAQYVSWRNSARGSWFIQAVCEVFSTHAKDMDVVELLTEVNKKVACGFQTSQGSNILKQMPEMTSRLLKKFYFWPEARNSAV
Briefly: CED-3 fluorogenic assay.

The target in experiment [3] is T3, purified C. elegans CED-3 (Caenorhabditis elegans, UniProt P42573).
T3 sequence (P42573 221-374 limits assumed): T2 sequence (P42573 221-374 limits assumed)
T3 sequence (P42573 389-503 limits assumed): T2 sequence (P42573 389-503 limits assumed)
Briefly: CED-3 fluorogenic assay. The following applies: for Purified CED-3 Hill Slope Value: determined by XLfit in ActivityBase.

Consider `O=C(/C=C/c1ccccc1)NNC1=NS(=O)(=O)c2ccccc21` [BAS01847186], for which, in experiment [1], the “potency on HCASP3 compared to CED-3” value is reported as “as potent or more so on HCASP3”.

`CC(=O)c1ccc(-c2ccc(/C=C3/SC(=S)NC3=O)o2)cc1` [BAS 00253468]: in experiment [2], it took 21 µM to reach half-maximal inhibition (IC50). Besides, in experiment [3], the IC50 turned out to be 9 µM and the “Purified CED-3 Hill Slope Value” came to 1.79.

As for `O=c1cc2oc3cc(O)c(O)cc3c(-c3ccccn3)c-2cc1O` [BAS 05223612], in experiment [2], the midpoint of inhibition, the IC50, lay at 24.5 µM. In addition, in experiment [3], the IC50 was 3.9 µM, the “inhibition of CED-3 (in words)” value was “inhibited” and the “Purified CED-3 Hill Slope Value” worked out at 1.7. Also, in experiment [1] (dose-response, at the concentrations tested), the “inhibition of HCASP3 (in words)” value is recorded as “inhibited”.

`COc1ccc(N2C(=O)/C(=C/c3ccco3)C(=O)NC2=S)cc1` [BAS 00519146]: the “Purified CED-3 Hill Slope Value” in experiment [3] came to 1.6. In addition, the IC50 in experiment [1] (read-out: IC50 HCASP-3, purified HCASP3, Fig. 3C) came out at 10.8 µM.

Consider `CCCOC(=O)/C(=C\C=C\c1ccco1)NC(=O)c1ccccc1` [BAS 00187854], for which the IC50 in experiment [2] came to 34.7 µM. In addition, in experiment [3], the IC50 was 14.6 µM and the “Purified CED-3 Hill Slope Value” is 1.27.

Regarding `O=C1NC(=S)N(c2ccc(F)cc2)C(=O)/C1=C/c1ccco1` [BAS 01202237], in experiment [3], the “Purified CED-3 Hill Slope Value” was determined as 1.5.

With `CC(=O)N[C@@H](CC(=O)O)C(=O)N[C@@H](CCC(=O)O)C(=O)N[C@H](C(=O)N[C@H](C=O)CC(=O)O)C(C)C` [Ac-DEVD-CHO, reference compound], the IC50 in experiment [2] was 0.0019 µM; in experiment [3], 0.0027 µM. Further, the “calculated Hill slope on CED-3L” value in experiment [2] (crude lysate, Fig. 1A) is listed as −0.994.

Regarding `O=C(/C=C/c1ccco1)c1ccc(NC(=O)c2cccs2)cc1` [BAS 00835000], the IC50 in experiment [2] turned out to be 30 µM; in experiment [3], 4.9 µM. For the same molecule, the “Purified CED-3 Hill Slope Value” in experiment [3] worked out at 1.38.

As for `Nc1ccc(N2Cc3ccccc3C2)cc1` [BAS 01988614], the IC50 in experiment [2] was found to be 43.1 µM. In addition, in experiment [3], the IC50 was 13.6 µM and the “Purified CED-3 Hill Slope Value” turned out to be 0.62.
